Laboratory results taken from PubChem BioAssay (NCI).
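Method: 48-hour compound exposure of cells in 96-well plates, five concentrations, linear interpolation of endpoints. At the GI50, growth is halved. At the TGI there is no net growth.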

What was measured:
Experiment in all cases: NCI-60 cell line screen, 48 h
[1] = test system: CCRF-CEM leukemia
[2] = test system: A549 NSCLC
[3] = test system: NCI-H522 lung
[4] = test system: U251 CNS
[5] = test system: A498 renal
[6] = test system: DU-145 prostate
[7] = test system: SF-539 CNS
[8] = test system: HCT-116 colon
[9] = test system: NCI-H23 lung
[10] = test system: LOX IMVI melanoma
[11] = test system: MALME-3M melanoma
[12] = test system: HCC-2998 colon
[13] = test system: SK-MEL-2 melanoma
[14] = test system: TK-10 renal
[15] = test system: OVCAR-5 ovarian
[16] = test system: NCI/ADR-RES ovarian
[17] = test system: MDA-MB-231 breast
[18] = test system: BT-549 breast
[19] = test system: KM12 colon
[20] = test system: COLO 205 colon
[21] = test system: PC-3 prostate
[22] = test system: OVCAR-8 ovarian
[23] = test system: OVCAR-4 ovarian
[24] = test system: MCF7 breast
[25] = test system: MOLT-4 leukemia
[26] = test system: UACC-62 melanoma
[27] = test system: SN12C renal
[28] = test system: CAKI-1 renal
[29] = test system: NCI-H226 lung
[30] = test system: NCI-H460 lung
[31] = test system: IGROV1 ovarian
[32] = test system: 786-0 renal
[33] = test system: SF-295 CNS
[34] = test system: EKVX NSCLC
[35] = test system: UO-31 renal
[36] = test system: SW-620 colon
[37] = test system: SR leukemia
[38] = test system: HOP-62 NSCLC
[39] = test system: MDA-MB-435
[40] = test system: OVCAR-3 ovarian
[41] = test system: K-562 leukemia
[42] = test system: T-47D breast
[43] = test system: ACHN renal
[44] = test system: SF-268 CNS
[45] = test system: HL-60(TB) leukemia
[46] = test system: SK-MEL-28 melanoma
[47] = test system: HOP-92 NSCLC
[48] = test system: M14 melanoma
[49] = test system: RXF 393 renal
[50] = test system: RPMI-8226 leukemia
[51] = test system: HT29 colon
[52] = test system: UACC-257 melanoma
[53] = test system: HS 578T breast
[54] = test system: SK-MEL-5 melanoma
[55] = test system: SNB-75 CNS
[56] = test system: SNB-19 CNS
[57] = test system: HCT-15 colon
[58] = test system: SK-OV-3 ovarian

## COc1ccc2c(c1)C(=O)c1c-2c(Nc2ccc(Cl)cc2)nc2ccccc12
[1]
  GI50: 32 µM
  TGI: > 100 µM
[2]
  GI50: 13.3 µM
  TGI: 39.7 µM
[3]
  GI50: 10.1 µM
  TGI: 45.5 µM
[4]
  GI50: 5.51 µM
  TGI: 18.4 µM
[5]
  GI50: 5.01 µM
  TGI: 18.9 µM
[6]
  GI50: 8.49 µM
  TGI: 98.5 µM
[7]
  GI50: 8.76 µM
  TGI: 26.2 µM
[8]
  GI50: 5.03 µM
  TGI: 24 µM
[9]
  GI50: 13.6 µM
  TGI: 50.3 µM
[10]
  GI50: 14.2 µM
  TGI: 54.9 µM
[11]
  GI50: 11 µM
  TGI: 42.4 µM
[12]
  GI50: 22.1 µM
  TGI: > 100 µM
[13]
  GI50: 17 µM
  TGI: 56.1 µM
[14]
  GI50: 14.3 µM
  TGI: 34.3 µM
[15]
  GI50: 22.3 µM
  TGI: 84.1 µM
[16]
  GI50: 16.6 µM
  TGI: > 100 µM
[17]
  GI50: 4.46 µM
  TGI: 18.9 µM
[18]
  GI50: 8.46 µM
  TGI: 27.7 µM
[19]
  GI50: 50 µM
  TGI: > 100 µM
[20]
  GI50: 34.8 µM
  TGI: > 100 µM
[21]
  GI50: 15.5 µM
  TGI: 63.3 µM
[22]
  GI50: 11.4 µM
  TGI: 29.6 µM
[23]
  GI50: 10.1 µM
  TGI: 42.9 µM
[24]
  GI50: > 100 µM
  TGI: > 100 µM
[25]
  GI50: 27.5 µM
  TGI: > 100 µM
[26]
  GI50: 11.3 µM
  TGI: 26 µM
[27]
  GI50: 17.7 µM
  TGI: 57.1 µM
[28]
  GI50: 20.4 µM
  TGI: > 100 µM
[29]
  GI50: 10.3 µM
  TGI: 50 µM
[30]
  GI50: > 100 µM
  TGI: > 100 µM
[31]
  GI50: 10.7 µM
  TGI: 52.1 µM
[32]
  GI50: 4.15 µM
  TGI: 16 µM
[33]
  GI50: 16.7 µM
  TGI: 46.6 µM
[34]
  GI50: 10.1 µM
  TGI: 95.3 µM
[35]
  GI50: 25.8 µM
  TGI: > 100 µM
[36]
  GI50: 23.8 µM
  TGI: > 100 µM
[37]
  GI50: 14 µM
  TGI: 58.2 µM
[38]
  GI50: 2.86 µM
  TGI: 11.3 µM
[39]
  GI50: 38.6 µM
  TGI: > 100 µM
[40]
  GI50: 33.6 µM
  TGI: > 100 µM
[41]
  GI50: 71.6 µM
  TGI: > 100 µM
[42]
  GI50: 17.8 µM
  TGI: > 100 µM
[43]
  GI50: 4.23 µM
  TGI: 16.3 µM
[44]
  GI50: > 100 µM
  TGI: > 100 µM
[45]
  GI50: > 100 µM
  TGI: > 100 µM
[46]
  GI50: 19.7 µM
  TGI: > 100 µM
[47]
  GI50: 11.5 µM
  TGI: 39.2 µM
[48]
  GI50: 31 µM
  TGI: > 100 µM
[49]
  GI50: 2.06 µM
  TGI: 6.35 µM
[50]
  GI50: 24.5 µM
  TGI: > 100 µM
[51]
  GI50: 27.5 µM
  TGI: > 100 µM
[52]
  GI50: 27.8 µM
  TGI: > 100 µM
[53]
  GI50: 2.58 µM
  TGI: 8.82 µM
[54]
  GI50: 2.84 µM
  TGI: 13.2 µM
[55]
  GI50: 4.27 µM
  TGI: 22.8 µM
[56]
  GI50: 14.4 µM
  TGI: 44 µM
[57]
  GI50: 42.3 µM
  TGI: > 100 µM

## COc1ccc2sc(-n3nc4ccccc4c3Nc3nc4ccc(OC)cc4s3)nc2c1
[1]
  TGI: > 100 µM
[2]
  TGI: 18.5 µM
[3]
  TGI: 17.2 µM
[4]
  TGI: 11 µM
[5]
  TGI: 5.63 µM
[6]
  TGI: 17.9 µM
[7]
  TGI: 4.5 µM
[8]
  TGI: 5.95 µM
[9]
  TGI: 5.25 µM
[10]
  TGI: 24.3 µM
[11]
  TGI: 14.8 µM
[12]
  TGI: 5.47 µM
[13]
  TGI: > 52.4 µM
[14]
  TGI: 11.8 µM
[15]
  TGI: 13.8 µM
[16]
  TGI: 10.4 µM
[17]
  TGI: 10.9 µM
[18]
  TGI: 14 µM
[19]
  TGI: 25.5 µM
[20]
  TGI: > 63.9 µM
[21]
  TGI: 17.4 µM
[22]
  TGI: 6.17 µM
[23]
  TGI: 6.82 µM
[24]
  TGI: 42 µM
[26]
  TGI: 10.8 µM
[27]
  TGI: 18.5 µM
[28]
  TGI: 6.89 µM
[29]
  TGI: 13.9 µM
[30]
  TGI: > 38.9 µM
[31]
  TGI: 8.47 µM
[32]
  TGI: 3.87 µM
[33]
  TGI: 12.8 µM
[34]
  TGI: 19.3 µM
[35]
  TGI: 34 µM
[36]
  TGI: 36.4 µM
[37]
  TGI: > 100 µM
[38]
  TGI: 4.43 µM
[39]
  TGI: 12 µM
[40]
  TGI: 7.45 µM
[58]
  TGI: 7.47 µM
[41]
  TGI: > 38.9 µM
[42]
  TGI: 5.64 µM
[43]
  TGI: 11.2 µM
[44]
  TGI: 32.5 µM
[46]
  TGI: 26.5 µM
[47]
  TGI: 15.5 µM
[48]
  TGI: 35.8 µM
[49]
  TGI: 43.3 µM
[50]
  TGI: 7.12 µM
[51]
  TGI: 14.7 µM
[52]
  TGI: 19.5 µM
[53]
  TGI: 5.61 µM
[54]
  TGI: 9.97 µM
[55]
  TGI: 9.92 µM
[56]
  TGI: 9.26 µM
[57]
  TGI: > 72.1 µM
